Data published in patent publication US20090304692A1, “TRIAZINE COMPOUNDS AS PI3 KINASE AND MTOR INHIBITORS” (Wyeth, priority 2008, published 2009).
Like-named read-outs stand apart in the source and are kept apart here.

Key:
Human mTOR (FLAG-TOR) = Human mTOR (FLAG-TOR) (Homo sapiens, UniProt P42345); assay: mTOR kinase assay (DELFIA format, purified enzyme); assay type: biochemical; details: read-out: IC50 mTOR
PI3K-α = PI3K-α (Homo sapiens, UniProt P42336); assay: PI3K-alpha fluorescence polarization assay
Chain of PI3K-α (P42336 whole entry, species assumed): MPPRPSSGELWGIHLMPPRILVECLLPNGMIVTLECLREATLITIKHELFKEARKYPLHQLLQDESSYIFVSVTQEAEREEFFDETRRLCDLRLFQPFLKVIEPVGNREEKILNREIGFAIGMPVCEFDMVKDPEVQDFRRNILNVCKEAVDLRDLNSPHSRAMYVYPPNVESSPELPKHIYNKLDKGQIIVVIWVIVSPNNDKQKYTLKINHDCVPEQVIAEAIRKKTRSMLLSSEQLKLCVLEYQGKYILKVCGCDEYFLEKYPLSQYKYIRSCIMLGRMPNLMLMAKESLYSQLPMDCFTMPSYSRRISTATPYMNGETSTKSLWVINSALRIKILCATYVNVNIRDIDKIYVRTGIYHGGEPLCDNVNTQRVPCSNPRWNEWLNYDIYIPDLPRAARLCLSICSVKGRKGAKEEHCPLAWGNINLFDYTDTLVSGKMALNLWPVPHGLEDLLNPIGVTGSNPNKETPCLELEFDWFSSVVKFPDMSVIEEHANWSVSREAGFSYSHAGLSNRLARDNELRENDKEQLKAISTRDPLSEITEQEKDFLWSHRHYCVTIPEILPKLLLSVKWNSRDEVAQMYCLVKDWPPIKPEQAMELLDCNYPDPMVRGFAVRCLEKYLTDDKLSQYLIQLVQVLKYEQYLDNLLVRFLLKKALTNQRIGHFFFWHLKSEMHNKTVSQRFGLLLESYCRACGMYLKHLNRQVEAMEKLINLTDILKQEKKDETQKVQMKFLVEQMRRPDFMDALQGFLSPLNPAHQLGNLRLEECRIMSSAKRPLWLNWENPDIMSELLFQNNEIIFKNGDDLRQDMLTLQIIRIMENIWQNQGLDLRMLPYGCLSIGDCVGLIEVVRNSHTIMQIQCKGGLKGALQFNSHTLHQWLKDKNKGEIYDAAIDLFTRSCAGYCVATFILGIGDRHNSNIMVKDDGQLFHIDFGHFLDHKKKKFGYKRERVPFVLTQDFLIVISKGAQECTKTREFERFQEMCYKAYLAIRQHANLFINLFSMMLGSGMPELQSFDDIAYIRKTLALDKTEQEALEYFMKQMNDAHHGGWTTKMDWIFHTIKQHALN
Chain of PI3K-α (P27986 whole entry partner, species assumed): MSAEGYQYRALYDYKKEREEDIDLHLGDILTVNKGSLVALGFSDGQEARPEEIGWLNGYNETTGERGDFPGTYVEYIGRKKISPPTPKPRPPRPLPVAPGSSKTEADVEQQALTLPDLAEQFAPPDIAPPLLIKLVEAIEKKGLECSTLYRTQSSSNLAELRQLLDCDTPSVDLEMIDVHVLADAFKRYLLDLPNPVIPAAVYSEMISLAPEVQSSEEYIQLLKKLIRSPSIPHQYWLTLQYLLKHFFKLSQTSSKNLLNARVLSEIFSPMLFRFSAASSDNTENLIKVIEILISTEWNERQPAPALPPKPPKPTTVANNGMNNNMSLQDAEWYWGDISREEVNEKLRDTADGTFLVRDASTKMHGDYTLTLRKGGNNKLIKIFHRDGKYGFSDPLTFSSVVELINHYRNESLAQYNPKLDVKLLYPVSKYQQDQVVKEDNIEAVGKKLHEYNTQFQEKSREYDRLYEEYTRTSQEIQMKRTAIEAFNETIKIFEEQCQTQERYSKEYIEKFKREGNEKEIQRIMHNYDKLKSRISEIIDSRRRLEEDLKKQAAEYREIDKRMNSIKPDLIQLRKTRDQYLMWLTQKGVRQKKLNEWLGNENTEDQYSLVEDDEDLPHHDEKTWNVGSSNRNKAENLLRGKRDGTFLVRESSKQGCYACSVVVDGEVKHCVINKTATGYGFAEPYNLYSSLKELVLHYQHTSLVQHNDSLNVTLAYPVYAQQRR

PI3K-γ = PI3K-γ (Homo sapiens, UniProt P48736); assay: PI3K-gamma fluorescence polarization assay
Chain of PI3K-γ (P48736 whole entry, species assumed): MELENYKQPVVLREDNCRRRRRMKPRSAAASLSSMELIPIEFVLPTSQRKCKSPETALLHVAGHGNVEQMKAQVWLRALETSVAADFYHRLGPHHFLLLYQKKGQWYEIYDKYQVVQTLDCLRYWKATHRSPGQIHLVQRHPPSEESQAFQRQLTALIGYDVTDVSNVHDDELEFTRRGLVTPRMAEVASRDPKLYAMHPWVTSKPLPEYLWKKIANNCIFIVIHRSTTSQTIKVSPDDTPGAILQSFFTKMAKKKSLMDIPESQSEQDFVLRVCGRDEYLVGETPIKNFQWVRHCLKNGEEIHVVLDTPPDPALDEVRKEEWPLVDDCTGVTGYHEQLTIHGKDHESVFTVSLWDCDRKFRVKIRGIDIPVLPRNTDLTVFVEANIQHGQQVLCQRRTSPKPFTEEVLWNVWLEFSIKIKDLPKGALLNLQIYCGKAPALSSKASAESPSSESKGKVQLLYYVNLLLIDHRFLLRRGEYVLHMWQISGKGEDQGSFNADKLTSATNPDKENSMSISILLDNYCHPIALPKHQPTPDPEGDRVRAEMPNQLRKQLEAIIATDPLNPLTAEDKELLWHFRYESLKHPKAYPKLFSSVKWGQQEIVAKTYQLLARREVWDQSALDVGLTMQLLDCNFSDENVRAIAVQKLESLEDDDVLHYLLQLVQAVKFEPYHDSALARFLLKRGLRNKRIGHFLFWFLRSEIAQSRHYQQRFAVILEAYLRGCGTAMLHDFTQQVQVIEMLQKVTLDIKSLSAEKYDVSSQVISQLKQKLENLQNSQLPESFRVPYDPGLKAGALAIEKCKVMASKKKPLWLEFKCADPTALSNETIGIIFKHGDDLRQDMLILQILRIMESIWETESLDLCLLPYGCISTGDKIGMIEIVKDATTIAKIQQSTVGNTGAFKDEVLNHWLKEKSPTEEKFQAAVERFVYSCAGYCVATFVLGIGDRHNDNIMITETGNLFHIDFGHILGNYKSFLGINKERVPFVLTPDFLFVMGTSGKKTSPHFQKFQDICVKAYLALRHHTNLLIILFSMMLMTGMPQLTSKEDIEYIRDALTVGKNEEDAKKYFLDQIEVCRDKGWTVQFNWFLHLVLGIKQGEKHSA

[1] = test system: human prostate LNCap tumor cell line; assay: In vitro cell culture growth assay (MTS), LNCap; details: read-out: IC50 LNCap
[2] = MTS cell growth assay, three days after drug treatment

Chain of Human mTOR (FLAG-TOR) (P42345 1360-2549 limits assumed): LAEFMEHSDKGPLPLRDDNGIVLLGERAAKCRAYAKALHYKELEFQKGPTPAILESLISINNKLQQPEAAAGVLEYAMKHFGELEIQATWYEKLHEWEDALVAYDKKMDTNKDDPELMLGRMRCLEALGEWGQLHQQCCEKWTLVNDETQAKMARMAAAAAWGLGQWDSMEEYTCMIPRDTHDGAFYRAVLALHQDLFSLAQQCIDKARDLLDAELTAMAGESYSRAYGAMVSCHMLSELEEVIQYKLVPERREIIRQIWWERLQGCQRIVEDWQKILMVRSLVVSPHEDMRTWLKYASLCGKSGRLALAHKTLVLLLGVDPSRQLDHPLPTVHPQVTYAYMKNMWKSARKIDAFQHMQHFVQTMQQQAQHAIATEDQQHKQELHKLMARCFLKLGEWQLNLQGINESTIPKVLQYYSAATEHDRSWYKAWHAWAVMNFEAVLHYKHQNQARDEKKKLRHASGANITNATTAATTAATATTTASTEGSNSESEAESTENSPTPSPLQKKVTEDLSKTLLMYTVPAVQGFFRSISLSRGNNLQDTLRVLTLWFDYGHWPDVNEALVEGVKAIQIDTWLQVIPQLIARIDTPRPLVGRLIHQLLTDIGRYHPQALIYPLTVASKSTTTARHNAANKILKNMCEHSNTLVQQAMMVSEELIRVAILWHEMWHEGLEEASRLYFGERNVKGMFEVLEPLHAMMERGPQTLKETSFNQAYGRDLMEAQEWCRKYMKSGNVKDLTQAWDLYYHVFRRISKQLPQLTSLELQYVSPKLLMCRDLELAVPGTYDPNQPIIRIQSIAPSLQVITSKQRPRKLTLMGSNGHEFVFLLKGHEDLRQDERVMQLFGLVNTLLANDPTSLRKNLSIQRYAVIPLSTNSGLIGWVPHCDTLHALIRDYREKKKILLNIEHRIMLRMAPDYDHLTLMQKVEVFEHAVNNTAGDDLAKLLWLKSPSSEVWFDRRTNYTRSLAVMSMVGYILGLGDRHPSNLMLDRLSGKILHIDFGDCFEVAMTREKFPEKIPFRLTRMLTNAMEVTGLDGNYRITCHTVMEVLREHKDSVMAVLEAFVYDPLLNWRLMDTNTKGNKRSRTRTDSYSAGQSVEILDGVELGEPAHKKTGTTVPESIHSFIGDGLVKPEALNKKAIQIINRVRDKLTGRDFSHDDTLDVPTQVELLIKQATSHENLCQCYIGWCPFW

C[C@@H]1COCCN1c1nc(-c2ccc(NC(=O)Nc3ccc(N4CCNCC4)cc3)cc2)nc(C2CCOCC2)n1 [Example 422, (R)-1-(4-(4-(3-methylmorpholino)-6-(tetrahydro-2H-pyran-4-yl)-1,3,5-triazin-2-yl)phenyl)-3-(4-(piperazin-1-yl)phenyl)urea]
IC50 (Human mTOR (FLAG-TOR)): 0.79 nM
IC50 (PI3K-α; read-out: IC50 PI3Kα): 269 nM
IC50 (PI3K-γ; read-out: IC50 PI3Kγ): 1.22 µM
IC50 ([1]; Homo sapiens, LNCaP, 72 h): 2 nM

CC(C)N(C)c1nc(-c2ccc(NC(=O)Nc3ccc(OCCN(C)C)cc3)cc2)nc(N2C3CCC2COC3)n1 [Example 391, 1-(4-(4-(3-oxa-8-azabicyclo[3.2.1]octan-8-yl)-6-(isopropyl(methyl)amino)-1,3,5-triazin-2-yl)phenyl)-3-(4-(2-(dimethylamino)ethoxy)phenyl)urea]
IC50 (Human mTOR (FLAG-TOR)): 9.6 nM
IC50 (PI3K-α; read-out: IC50 PI3Kα): 2400 nM
IC50 (PI3K-γ; read-out: IC50 PI3Kγ): 4 µM
IC50 ([1]; Homo sapiens, LNCaP, 72 h): 300 nM

C[C@@H]1COCCN1c1nc(-c2ccc(NC(=O)Nc3ccc(CN4CCCC4)cc3)cc2)nc(N2C[C@@H]3C[C@H]2CO3)n1 [Example 414, 1-(4-(4-((1S,4S)-2-oxa-5-azabicyclo[2.2.1]heptan-5-yl)-6-((R)-3-methylmorpholino)-1,3,5-triazin-2-yl)phenyl)-3-(4-(pyrrolidin-1-ylmethyl)phenyl)urea]
IC50 (Human mTOR (FLAG-TOR)): 6.9 nM
IC50 (PI3K-α; read-out: IC50 PI3Kα): 969 nM
IC50 (PI3K-γ; read-out: IC50 PI3Kγ): 5.45 µM
IC50 ([1]; Homo sapiens, LNCaP, 72 h): 120 nM

O=C(Nc1ccc(-c2nc(NCC3CCNCC3)nc(N3CC4CCC(C3)O4)n2)cc1)Nc1cccnc1 [Example 169, 1-(4-{4-(8-oxa-3-azabicyclo[3.2.1]oct-3-yl)-6-[(piperidin-4-ylmethyl)amino]-1,3,5-triazin-2-yl}phenyl)-3-pyridin-3-ylurea]
IC50 (Human mTOR (FLAG-TOR)): 8.3 nM
IC50 (PI3K-α; read-out: IC50 PI3Kα): 408 nM
IC50 (PI3K-γ; read-out: IC50 PI3Kγ): 7.96 µM
IC50 ([1]; Homo sapiens, LNCaP, 72 h): 5000 nM

O=C(Nc1ccc(C(=O)N2CCOCC2)cc1)Nc1ccc(-c2nc(C3CCOCC3)nc(N3C4CCC3COC4)n2)cc1 [Example 460, 1-(4-(4-(3-oxa-8-azabicyclo[3.2.1]octan-8-yl)-6-(tetrahydro-2H-pyran-4-yl)-1,3,5-triazin-2-yl)phenyl)-3-(4-(morpholine-4-carbonyl)phenyl)urea]
IC50 (Human mTOR (FLAG-TOR)): 0.4 nM
IC50 (PI3K-α; read-out: IC50 PI3Kα): 143 nM
IC50 (PI3K-γ; read-out: IC50 PI3Kγ): 1.08 µM
IC50 ([1]; Homo sapiens, LNCaP, 72 h): < 0.8 nM

O=C(Nc1ccc(-c2nc(Nc3ccccc3)nc(N3CC4CCC(C3)O4)n2)cc1)Nc1cccnc1 [Example 150, 1-{4-[4-anilino-6-(8-oxa-3-azabicyclo[3.2.1]oct-3-yl)-1,3,5-triazin-2-yl]phenyl}-3-pyridin-3-ylurea]
IC50 (Human mTOR (FLAG-TOR)): 5 nM
IC50 (PI3K-α): 832 nM
IC50 (PI3K-γ): > 10 µM
IC50 ([1]; Homo sapiens, LNCaP, 72 h): 290 nM

CN1CCN(CC(=O)Nc2ccc(NC(=O)Nc3ccc(-c4nc(N5CC6CCC(C5)O6)nc(N5CC6CCC(C5)O6)n4)cc3)cc2)CC1 [Example 509, N-[4-({[4-(4,6-di-8-oxa-3-azabicyclo[3.2.1]oct-3-yl-1,3,5-triazin-2-yl)phenyl]carbamoyl}amino)phenyl]-2-(4-methylpiperazin-1-yl)acetamide]
IC50 (Human mTOR (FLAG-TOR)): 0.45 nM
IC50 (PI3K-α; read-out: IC50 PI3Kα): 11.5 nM
IC50 (PI3K-γ; read-out: IC50 PI3Kγ): 0.662 µM
IC50 ([1]; Homo sapiens, LNCaP, 72 h): < 0.8 nM

O=C(Nc1ccc(-c2nc(C3CCOCC3)nc(N3C4CCC3COC4)n2)cc1)Nc1ccc(N2CCN(C3CC3)CC2)cc1 [Example 436, 1-(4-(4-(3-oxa-8-azabicyclo[3.2.1]octan-8-yl)-6-(tetrahydro-2H-pyran-4-yl)-1,3,5-triazin-2-yl)phenyl)-3-(4-(4-cyclopropylpiperazin-1-yl)phenyl)urea]
IC50 (Human mTOR (FLAG-TOR)): 0.62 nM
IC50 (PI3K-α; read-out: IC50 PI3Kα): 749 nM
IC50 (PI3K-γ; read-out: IC50 PI3Kγ): 3.12 µM
IC50 ([1]; Homo sapiens, LNCaP, 72 h): 10 nM

CC(C)N1CCN(C(=O)c2ccc(NC(=O)Nc3ccc(-c4nc(N5CCOC[C@H]5C)nc(N5CCOC[C@H]5C)n4)cc3)cc2)CC1 [Example 451, 1-(4-(4,6-bis((R)-3-methylmorpholino)-1,3,5-triazin-2-yl)phenyl)-3-(4-(4-isopropylpiperazine-1-carbonyl)phenyl)urea]
IC50 (Human mTOR (FLAG-TOR)): 1.4 nM
IC50 (PI3K-α; read-out: IC50 PI3Kα): 85 nM
IC50 (PI3K-γ; read-out: IC50 PI3Kγ): 0.702 µM
IC50 ([1]; Homo sapiens, LNCaP, 72 h): < 0.8 nM

CC(C)(C)Nc1nc(-c2ccc(NC(=O)Nc3cccnc3)cc2)nc(N2CC3CCC(C2)O3)n1 [Example 262, 1-{4-[4-(tert-butylamino)-6-(8-oxa-3-azabicyclo[3.2.1]oct-3-yl)-1,3,5-triazin-2-yl]phenyl}-3-pyridin-3-ylurea]
IC50 (Human mTOR (FLAG-TOR)): 0.29 nM
IC50 (PI3K-α; read-out: IC50 PI3Kα): 105 nM
IC50 (PI3K-γ; read-out: IC50 PI3Kγ): 0.954 µM
IC50 ([1]; Homo sapiens, LNCaP, 72 h): 22 nM

CC(C)Nc1nc(-c2ccc(NC(=O)Nc3ccc(N4CCC(N(C)C)CC4)cc3)cc2)nc(N2C3CCC2COC3)n1 [Example 388, 1-(4-(4-(3-oxa-8-azabicyclo[3.2.1]octan-8-yl)-6-(isopropylamino)-1,3,5-triazin-2-yl)phenyl)-3-(4-(4-(dimethylamino)piperidin-1-yl)phenyl)urea]
IC50 (Human mTOR (FLAG-TOR)): 4.8 nM
IC50 (PI3K-α; read-out: IC50 PI3Kα): 3450 nM
IC50 (PI3K-γ; read-out: IC50 PI3Kγ): 4.29 µM
IC50 ([1]; Homo sapiens, LNCaP, 72 h): 110 nM

1-(4-(4-(3-oxa-8-azabicyclo[3.2.1]octan-8-yl)-6-(piperidin-4-ylamino)-1,3,5-triazin-2-yl)phenyl)-3-ethylurea [Example 364]
IC50 (Human mTOR (FLAG-TOR)): 3.5 nM
IC50 (PI3K-α; read-out: IC50 PI3Kα): 1460 nM
IC50 (PI3K-γ; read-out: IC50 PI3Kγ): 8.04 µM
IC50 [1, 2]: 70 nM

O=C(NCCO)Nc1ccc(-c2nc(Nc3ccc(N4CCNCC4)cc3)nc(N3CC4CCC(C3)O4)n2)cc1 [Example 328, 1-(2-hydroxyethyl)-3-(4-{4-(8-oxa-3-azabicyclo[3.2.1]oct-3-yl)-6-[(4-piperazin-1-ylphenyl)amino]-1,3,5-triazin-2-yl}phenyl)urea]
IC50 (Human mTOR (FLAG-TOR)): 4.6 nM
IC50 (PI3K-α; read-out: IC50 PI3Kα): 261 nM
IC50 (PI3K-γ; read-out: IC50 PI3Kγ): 14 µM
IC50 ([1]; Homo sapiens, LNCaP, 72 h): 1500 nM

O=C(Nc1ccncc1)Nc1ccc(-c2nc(C3CCOCC3)nc(N3C4CCC3COC4)n2)cc1 [Example 406, 1-(4-(4-(3-oxa-8-azabicyclo[3.2.1]octan-8-yl)-6-(tetrahydro-2H-pyran-4-yl)-1,3,5-triazin-2-yl)phenyl)-3-(pyridin-4-yl)urea]
IC50 (Human mTOR (FLAG-TOR)): 0.38 nM
IC50 (PI3K-α; read-out: IC50 PI3Kα): 478 nM
IC50 (PI3K-γ; read-out: IC50 PI3Kγ): 1.88 µM
IC50 ([1]; Homo sapiens, LNCaP, 72 h): 2.4 nM

O=C(Nc1ccncc1)Nc1ccc(-c2nc(N3CCC(O)CC3)nc(N3CC4CCC(C3)O4)n2)cc1 [Example 116, 1-{4-[4-(4-hydroxypiperidin-1-yl)-6-(8-oxa-3-azabicyclo[3.2.1]oct-3-yl)-1,3,5-triazin-2-yl]phenyl}-3-pyridin-4-ylurea]
IC50 (Human mTOR (FLAG-TOR)): 2.7 nM
IC50 (PI3K-α; read-out: IC50 PI3Kα): 1740 nM
IC50 (PI3K-γ; read-out: IC50 PI3Kγ): 2.31 µM
IC50 ([1]; Homo sapiens, LNCaP, 72 h): 70 nM

CC(C)Oc1nc(-c2ccc(NC(=O)Nc3ccc(N4CCN(C)CC4)cc3)cc2)nc(N2CC3CCC(C2)O3)n1 [Example 159, 1-{4-[4-isopropoxy-6-(8-oxa-3-azabicyclo[3.2.1]oct-3-yl)-1,3,5-triazin-2-yl]phenyl}-3-[4-(4-methylpiperazin-1-yl)phenyl]urea]
IC50 (Human mTOR (FLAG-TOR)): 2 nM
IC50 (PI3K-α; read-out: IC50 PI3Kα): 133 nM
IC50 (PI3K-γ; read-out: IC50 PI3Kγ): 3.92 µM
IC50 ([1]; Homo sapiens, LNCaP, 72 h): 1.2 nM

C[C@@H]1COCCN1c1nc(-c2ccc(NC(=O)Nc3ccncc3)cc2)nc(N2C3CCC2COC3)n1 [Example 416, 1-(4-(4-(3-oxa-8-azabicyclo[3.2.1]octan-8-yl)-6-((R)-3-methylmorpholino)-1,3,5-triazin-2-yl)phenyl)-3-(pyridin-4-yl)urea]
IC50 (Human mTOR (FLAG-TOR)): 0.55 nM
IC50 (PI3K-α; read-out: IC50 PI3Kα): 446 nM
IC50 (PI3K-γ; read-out: IC50 PI3Kγ): 2.5 µM
IC50 ([1]; Homo sapiens, LNCaP, 72 h): 12 nM

O=C(Nc1ccc(-c2nc(N3C[C@@H]4C[C@H]3CO4)nc(N3C[C@@H]4C[C@H]3CO4)n2)cc1)Nc1ccc(N2CCNCC2)cc1 [Example 313, 1-{4-[4,6-di-(1S,4S)-2-oxa-5-azabicyclo[2.2.1]hept-5-yl-1,3,5-triazin-2-yl]phenyl}-3-(4-piperazin-1-ylphenyl)urea]
IC50 (Human mTOR (FLAG-TOR)): 37 nM
IC50 (PI3K-α; read-out: IC50 PI3Kα): 1730 nM
IC50 (PI3K-γ; read-out: IC50 PI3Kγ): 7.49 µM
IC50 [1, 2]: 100 nM

COCC(COC)Oc1nc(-c2ccc(NC(=O)Nc3ccc(N4CCN(C)CC4)cc3)cc2)nc(N2CC3CCC(C2)O3)n1 [Example 175, 1-(4-{4-[2-methoxy-1-(methoxymethyl)ethoxy]-6-(8-oxa-3-azabicyclo[3.2.1]oct-3-yl)-1,3,5-triazin-2-yl}phenyl)-3-[4-(4-methylpiperazin-1-yl)phenyl]urea]
IC50 (Human mTOR (FLAG-TOR)): 4.8 nM
IC50 (PI3K-α; read-out: IC50 PI3Kα): 549 nM
IC50 (PI3K-γ; read-out: IC50 PI3Kγ): 0.453 µM
IC50 ([1]; Homo sapiens, LNCaP, 72 h): 9.5 nM

CN1CCN(c2nc(-c3ccc(NC(=O)Nc4cccnc4)cc3)nc(N3CC4CCC(C3)O4)n2)C1 [Example 171, 1-{4-[4-(3-methylimidazolidin-1-yl)-6-(8-oxa-3-azabicyclo[3.2.1]oct-3-yl)-1,3,5-triazin-2-yl]phenyl}-3-pyridin-3-ylurea]
IC50 (Human mTOR (FLAG-TOR)): 1.2 nM
IC50 (PI3K-α; read-out: IC50 PI3Kα): 300 nM
IC50 (PI3K-γ; read-out: IC50 PI3Kγ): 9.5 µM
IC50 ([1]; Homo sapiens, LNCaP, 72 h): 5200 nM

O=C(Nc1ccc(-c2nc(OCCC3CCNCC3)nc(N3CC4CCC(C3)O4)n2)cc1)Nc1cccnc1 [Example 182, 1-{4-[4-(8-oxa-3-azabicyclo[3.2.1]oct-3-yl)-6-(2-piperidin-4-ylethoxy)-1,3,5-triazin-2-yl]phenyl}-3-pyridin-3-ylurea]
IC50 (Human mTOR (FLAG-TOR)): 3 nM
IC50 (PI3K-α; read-out: IC50 PI3Kα): 308 nM
IC50 (PI3K-γ; read-out: IC50 PI3Kγ): 5 µM
IC50 ([1]; Homo sapiens, LNCaP, 72 h): 3500 nM

O=C(Nc1ccncc1)Nc1ccc(-c2nc(N3CCN(Cc4ccccc4)CC3)nc(N3CC4CCC(C3)O4)n2)cc1 [Example 109, 1-{4-[4-(4-benzylpiperazin-1-yl)-6-(8-oxa-3-azabicyclo[3.2.1]oct-3-yl)-1,3,5-triazin-2-yl]phenyl}-3-pyridin-4-ylurea]
IC50 (Human mTOR (FLAG-TOR)): 73.5 nM
IC50 (PI3K-α; read-out: IC50 PI3Kα): 1460 nM
IC50 (PI3K-γ; read-out: IC50 PI3Kγ): 2.96 µM
IC50 ([1]; Homo sapiens, LNCaP, 72 h): 1900 nM

C[C@@H]1COCCN1c1nc(-c2ccc(NC(=O)Nc3ccc(N4CCN(C5CC5)CC4)cc3)cc2)nc(N2C3CCC2COC3)n1 [Example 442, 1-(4-(4-(3-oxa-8-azabicyclo[3.2.1]octan-8-yl)-6-((R)-3-methylmorpholino)-1,3,5-triazin-2-yl)phenyl)-3-(4-(4-cyclopropylpiperazin-1-yl)phenyl)urea]
IC50 (Human mTOR (FLAG-TOR)): 1.5 nM
IC50 (PI3K-α; read-out: IC50 PI3Kα): 1760 nM
IC50 (PI3K-γ): > 10 µM
IC50 ([1]; Homo sapiens, LNCaP, 72 h): 13 nM
